± gives the expanded uncertainty stated by the source.
Settings: Liquid; Manometric method

Normal boiling temperature	Structure (SMILES)
176.24 ± 0.31 °C	Cc1ccc(C(C)C)cc1 [1-(1-methylethyl)-4-methylbenzene]
177.19 ± 0.36 °C	C=C(C)[C@@H]1CC=C(C)CC1 [(S)-1-methyl-4-(1-methylethenyl)cyclohexene]
165.80 ± 0.31 °C	C=C1CCC2CC1C2(C)C (stereo not drawn) [β-pinene]

— the NIST ThermoML archive (doi:10.1021/je101151f)
